In PubChem BioAssay (NCI):
Where “and” joins values, the source holds several entries; their conditions need not be identical. Equal values may be shown once.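 Dose response: 5 concentrations. Exposure: 48 h. Format: 96-well plates. Endpoint: linear interpolation; highest concentration if not reached. The concentration for 50% growth inhibition is given as GI50. The concentration for full growth arrest is given as TGI.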

Assays:
Experiment in all cases: growth of human tumour cells (NCI), 48 h
OVCAR-3 ovarian = system: OVCAR-3 ovarian
SF-295 CNS = system: SF-295 CNS
NCI-H226 lung = system: NCI-H226 lung
NCI/ADR-RES ovarian = system: NCI/ADR-RES ovarian
COLO 205 colon = system: COLO 205 colon
LOX IMVI melanoma = system: LOX IMVI melanoma
SF-268 CNS = system: SF-268 CNS
HCC-2998 colon = system: HCC-2998 colon
NCI-H522 lung = system: NCI-H522 lung
OVCAR-5 ovarian = system: OVCAR-5 ovarian

| SMILES | GI50 (OVCAR-3 ovarian) | TGI (OVCAR-3 ovarian) [µM] | GI50 (SF-295 CNS) | TGI (SF-295 CNS) [µM] | GI50 (NCI-H226 lung) | TGI (NCI-H226 lung) | GI50 (NCI/ADR-RES ovarian) | TGI (NCI/ADR-RES ovarian) [µM] | GI50 (COLO 205 colon) | TGI (COLO 205 colon) [µM] | GI50 (LOX IMVI melanoma) [µM] | TGI (LOX IMVI melanoma) [µM] | GI50 (SF-268 CNS) | TGI (SF-268 CNS) [µM] | GI50 (HCC-2998 colon) | TGI (HCC-2998 colon) [µM] | GI50 (NCI-H522 lung) | TGI (NCI-H522 lung) [µM] | GI50 (OVCAR-5 ovarian) | TGI (OVCAR-5 ovarian) [µM] |
| --- | --- | --- | --- | --- | --- | --- | --- | --- | --- | --- | --- | --- | --- | --- | --- | --- | --- | --- | --- | --- |
| C/C(=C\c1ccn(-c2ccccc2N)n1)[C@@H]1C[C@@H]2O[C@]2(C)CCC[C@H](C)[C@H](O)[C@@H](C)C(=O)C(C)(C)[C@@H](O)CC(=O)O1 | 0.0177 µM | 0.457 | 0.0797 µM | > 50 | 7.14 µM | > 50 µM | 0.154 µM | 7.21 | 0.0212 µM | 0.641 | 0.0331 | > 50 | 0.111 µM | > 50 | 0.0467 µM | > 18.3 | 0.0511 µM | 0.386 | 0.102 µM | > 40.9 |
| [2H]C([2H])([2H])NC(=O)c1nnc(NC(=O)C2CC2)cc1Nc1cccc(-c2ncn(C)n2)c1OC | 41.3 µM | > 100 | 53.4 µM | > 100 | > 100 µM | > 100 µM | 51.3 µM | > 100 | 97.1 µM | > 100 | 14.5 | > 100 | 45.7 µM | > 100 | 96.3 µM | > 100 | 23 µM | > 100 | > 100 µM | > 100 |
| O=C(O)C[C@H](O)C[C@H](O)/C=C/c1c(C2CC2)nc2ccccc2c1-c1ccc(F)cc1 | 16.8 µM and 12.1 µM | > 100 | 2.1 µM and 0.526 µM | > 100 | 11.7 µM and 2.22 µM | 51.6 µM and 8.01 µM | 2.82 µM and 0.86 µM | > 100 | 43.3 µM and 8.98 µM | > 100 | 1.33 | 13.9 | 0.659 µM and 0.381 µM | > 100 | 42 µM and 49.9 µM | > 100 | 1.38 µM and 0.633 µM |  | 52.6 µM and 7.32 µM | > 100 |
| N#Cc1nc(-c2ccc(F)cc2)oc1S(=O)(=O)N1CCCCC1 | 1.86 µM | 3.48 | 14.1 µM | 27.4 | 19.1 µM | 42.1 µM | 4.97 µM | > 100 | 2.07 µM | 4.2 | 1.19 | 2.69 | 2.23 µM | 6.23 | 1.8 µM | 3.46 | 0.927 µM | 3.1 | 1.71 µM | 3.32 |
| C=CC(=O)N1CCC(c2ccc(C(N)=O)c(-c3ccc(Oc4ccccc4)cc3)n2)CC1 | 36 µM | > 100 | 27.3 µM | > 100 | 20.3 µM | 79.2 µM | 30.3 µM | > 100 | 42 µM | > 100 | 26.3 | > 100 | 50.5 µM | > 100 | 58.1 µM | > 100 | 11.2 µM | 60.3 | > 100 µM | > 100 |
| Nc1ccn(C2CC(F)C(CO)O2)c(=O)n1 (configuration not stated) | > 100 µM | > 100 | > 100 µM | > 100 | > 100 µM | > 100 µM | > 100 µM | > 100 | > 100 µM | > 100 | > 100 | > 100 | > 100 µM | > 100 | > 100 µM | > 100 | > 100 µM | > 100 | > 100 µM | > 100 |
| CCOC(=O)N1C/C(=C\c2ccccc2)C(=O)/C(=C/c2ccccc2)C1 |  | 14.5 |  | 10.1 |  | 12.3 µM |  | 36.6 |  | 11.6 |  | 3.63 |  | 11.9 |  | 4.8 |  | 7.44 |  | 18.2 |
| CCCCCCCCCCCC1=NC(C)(C)CN1C(C)(C)CO | 2.05 µM | 6.2 | 2.04 µM | 4.29 | 5.16 µM | 20.5 µM | 2.41 µM | 5.76 | 1.59 µM | 3 | 1.91 | 3.79 | 2.35 µM | 11.3 | 1.75 µM | 3.24 | 1.84 µM | 4.02 | 3.61 µM | 15 |
| COc1cc(-c2nc3ccccc3s2)ccc1OCCCCOc1cc2c(cc1OC)C(=O)N1CCC[C@H]1C=N2 | 0.728 µM | 4.78 | 2.02 µM | 10.3 | 2.47 µM | 5.05 µM | 2.13 µM | 6.12 | 0.697 µM | 2.26 | 0.726 | 2.22 | 1.28 µM | 4.65 | 1.1 µM | 2.69 | 0.736 µM | 3.16 | 1.13 µM | 4.93 |
| C=C1C(=O)O[C@H]2[C@H]1CC/C(COC(=O)CCCCCC(=O)OC/C1=C/CC[C@@]3(C)O[C@H]3[C@H]3OC(=O)C(=C)[C@@H]3CC1)=C\CC[C@@]1(C)O[C@@H]21 | 1.11 µM | 2.38 | 4.09 µM | 16.5 | 2.02 µM | 5.53 µM | 3.64 µM | 24.8 | 1.46 µM | 3.32 | 1.47 | 2.88 | 3.44 µM | 14.8 | 1.95 µM | 3.98 | 1.72 µM | 3.44 | 1.97 µM | 4.17 |
| Cc1ccc(/C=C/c2c(C(=O)/C=C/c3ccccc3)c(C)nc3ccccc23)cc1 | 1.51 µM | 2.88 | 2.2 µM | 5.02 | 1.69 µM | 3.46 µM | 2.24 µM | 5.85 | 1.6 µM | 3.67 | 1.64 | 3 | 2.06 µM | 5.42 | 1.71 µM | 3.35 | 1.4 µM | 3.29 | 1.9 µM | 3.53 |
| COc1ccc(-c2cc(=O)n(-c3nc4ccccc4[nH]3)[nH]2)cc1OC | 12.9 µM | > 100 | 1.3 µM | 4.82 | 15 µM | 67.1 µM | 3.57 µM | 33.3 | 35.8 µM | > 100 | 6.73 | > 100 | 10.2 µM | > 100 | 16.1 µM | > 100 | 2.96 µM | 9.14 | 28.2 µM | > 100 |
| O=C(CCN1CCCC1)Nc1ccc2c(NCc3ccccc3)c3ccccc3nc2c1 | 0.495 µM | 1.97 | 0.494 µM | 1.91 | 0.551 µM | 2.91 µM | 11.9 µM | 55 | 0.319 µM | 1.36 | 0.328 | 1.31 | 0.457 µM | 1.85 | 0.466 µM | 2.02 | 0.298 µM | 1.34 | 0.424 µM | 2.06 |
| COc1ccc([C@H](CC(=O)O)N2CCN(CCCc3ccc4c(n3)NCCC4)C2=O)cn1 | > 100 µM | > 100 | 47.6 µM | > 100 | 0.417 µM |  | > 100 µM | > 100 | > 100 µM | > 100 | 0.715 | 4.23 | 0.754 µM | > 100 | > 100 µM | > 100 | 0.114 µM | 0.267 | 0.403 µM | > 100 |
| COc1ccc(C(=O)Cn2c(C(=O)c3ccccc3)nc3ccccc32)cc1 | 2.59 µM | > 21.6 | 3.19 µM | > 100 | > 90.5 µM | > 100 µM | 1.49 µM |  | 5.12 µM | > 100 | 5.18 | > 100 | 4.18 µM | > 100 | 3.2 µM | > 100 | 2.16 µM | > 26.7 | > 26.1 µM | > 100 |
| CCCn1c2c(c3c(O)cccc31)C(=O)c1ccccc1-2 | 31.3 µM | > 100 | 23 µM | 67.8 | 28.3 µM | > 100 µM | 13.4 µM | 81.6 | > 100 µM | > 100 | 31.6 | > 100 | 19.5 µM | > 100 | 9.72 µM | > 100 | 23 µM | > 100 | 3.72 µM | > 100 |
| C[C@H]1[C@H](C)N1CC(O)Cn1ccnc1[N+](=O)[O-] (some centres not stated) |  | > 100 |  | > 100 |  | > 100 µM |  | > 100 |  | > 100 |  | > 100 |  | > 100 |  | > 100 |  | > 100 |  | > 100 |
| CNC(=O)NCC1OC(n2cnc3c(NC(=O)Nc4ccccc4)ncnc32)C(O[Si](C)(C)C(C)(C)C)C1O[Si](C)(C)C(C)(C)C (configuration not stated) | 2.6 µM | 5.54 | 3.84 µM | 31.8 | 3.1 µM | 8.63 µM | 3.72 µM | 20.7 | 1.89 µM | 3.36 | 1.82 | 3.36 | 3.58 µM | 14 | 2.02 µM | 3.75 | 2.39 µM | 7.14 | 5.24 µM | 25.2 |
| NC(=N\N=C/c1ccc(O)cc1)/C(N)=N\N=C/c1ccc(O)cc1 | > 100 µM | > 100 | 3.3 µM | > 100 | > 100 µM | > 100 µM | > 100 µM | > 100 | > 93.5 µM | > 100 | 0.435 | > 100 | 16.4 µM | > 100 | 8.56 µM | > 100 | 0.52 µM | > 100 | > 100 µM | > 100 |
| COC(C)(C)[C@@H](O)[C@H](O)C[C@H](C)C1=C2CC[C@@H]3[C@@]4(C)CC[C@@H](OC(C)=O)C(C)(C)[C@@H]4C[C@@H](OC4OC(COC(C)=O)C(O)C(O)C4O)[C@@]3(C)[C@]2(C)CC1 (some centres not stated) | 7.37 µM | 21.1 | 11.6 µM | 24.1 | 13.3 µM | 26.7 µM | 15.2 µM | 29.4 | 10.6 µM | 22.8 | 6.36 | 19.6 | 10.3 µM | 25.9 | 4 µM | 13.4 | 12.2 µM | 25.2 | 14.9 µM | 28.1 |
| O=C1CCc2c(sc3[nH]c(=S)n(-c4cc(C(F)(F)F)cc(C(F)(F)F)c4)c(=O)c23)C1 | 0.358 µM | 1.49 | 0.318 µM | 1.1 | 0.801 µM | 7.04 µM | 0.351 µM | 11.4 | 0.258 µM | 0.668 | 0.392 | 5.62 | 0.469 µM | > 45.4 | 0.509 µM | 1.91 | 0.344 µM | 1.5 | 0.438 µM | 2.19 |
